Reference: US20100168250A1, “USE OF CYCLOHEXANEHEXOL DERIVATIVES IN THE TREATMENT OF OCULAR DISEASE” (priority 2007, published 2010)

Tested on: ARPE-19 cells
Experiment: Effect of AZD103 on Aβ1-42-induced VEGF secretion in ARPE-19 cells (VEGF ELISA)
Type: cell-based, human
From the text: The potential of AZD-103 to neutralize the effects of Aβ on VEGF expression by RPE cells was investigated using the following materials and methods.
Materials: Human VEGF Duoset, 2nd Generation was obtained from R & D Systems [# DY293B]. 3,3′,5,5′-Tetramethylbenzidine Liquid Substrate (TMB) was obtained from Sigma [# S8865]. The stop solution for TMB was also obtained from Sigma [# S5814]. Tween-20 was obtained from Fisher [# BP 337-500]; Probumin was obtained from Millipore [#82-045-1]; and, 10× Phosphate Buffered Saline (PBS) was obtained from Roche [#11666789001]. […] The Media was then assessed for levels of VEGF by ELISA (R&D Systems, Minneapolis, Minn.) VEGF ELISA: Conditioned media collected from cell cultures grown in the presence or absence of Aβ1-42 and AZD103 were tested for vascular endothelial growth factor (VEGF) expression using a human VEGF duoset ELISA development kit as described by the manufacturer (R &D systems). […] The reaction was stopped and the colour development was read spectrophotometrically at a wavelength of 450 nm.

O[C@H]1[C@H](O)[C@@H](O)[C@H](O)[C@@H](O)[C@@H]1O [AZD103]
amount of secreted VEGF (ARPE-19 cells (1.5×10^4), Aβ1-42 oligomers pre-incubated 2 hours at 37° C. with AZD103 at weight ratios 1:0.5, 1:1, 1:2, 24 Hr treatment, serum-free medium, ELISA): effective towards reducing the amount of secreted VEGF
VEGF expression by RPE cells in presence of Aβ, compared to basal levels (absence of Aβ) (ARPE-19 cells, expressed as comparison to Normal ARPE-19 cells that received no treatment): returned to basal levels
